The values below are quoted from earlier work in patent US10967066B2, “Stapled acid-sensitive endosome disrupting alginates” (University of Pittsburgh—Of the Commonwealth System of …, priority 2015, dated 2021).

One series deals with tumors. To be noted: mice.

With `CC(C)c1cc(C(=O)[O-])c(O)c(C(C)C)c1.CC(C)c1cc(C(=O)[O-])c(O)c(C(C)C)c1.[Cu+2]` [Cu(II)DIPS, copper(II) (3,5-diisopropylsalicylate)2], in the series on cancer cells, the “hydrogen peroxide accumulation and cell death in cancer cells” value is “induce hydrogen peroxide accumulation due to the conversion of radical oxygen into hydrogen peroxide, with this accumulation of hydrogen peroxide leading to cell death in cancer cells”. Also, the clearing tumors result in the series with tumors was “effective in clearing tumors in mice”.
